According to patent US20100298141A1, “SUBSTITUTED PYRIDINE N-OXIDE HERBICIDES” (E. I. DU PONT DE NEMOURS AND COMPANY, priority 2007, published 2010):

Legend:
redroot pigweed = test: Test A pre-/postemergence greenhouse test; assay type: in vivo, Amaranthus retroflexus; details: for Pigweed plant response rating: 0 to 100 scale
In short: (§1)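 Planting was into mixed loam soil and sand; preemergence treatment followed as a directed soil spray. Concurrently, emerged plants (one- to two-leaf, 2–10 cm) received postemergence applications of identically formulated compound (non-phytotoxic solvent, surfactant). After approximately ten days under greenhouse conditions, injury was judged by eye against untreated plants.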

eastern black nightshade = test: Test C pre-/postemergence test; assay type: in vivo, Solanum ptycanthum
In short: (§2)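 Compounds in a non-phytotoxic solvent with surfactant applied preemergence to seeded pots and, at the same time, postemergence to plants 2–18 cm tall (1- to 4-leaf stage). Paddy tests: pots flooded to 3 cm, compound applied into the water, depth held throughout.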

corn = test: Test A pre-/postemergence greenhouse test; assay type: in vivo, Zea mays; details: for Corn plant response rating: 0 to 100 scale
In short: as §1

bermudagrass = test: Test C pre-/postemergence test; assay type: in vivo, Cynodon dactylon; details: for Plant response rating, Bermudagrass: scale 0 to 100, 0 no effect, 100 complete control
In short: as §2

barnyardgrass = test: Test C flooded paddy test; assay type: in vivo, Echinochloa crus-galli; details: Flood
In short: (§3)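 Test compounds are applied straight into paddy water held 3 cm above the soil surface, with that flood maintained for the whole test. After 13 to 15 days in the greenhouse, each species is scored visually relative to controls.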

velvetleaf = test: Test C pre-/postemergence test; assay type: in vivo, Abutilon theophrasti; details: Postemergence; for Plant response rating, Velvetleaf: scale 0 to 100, 0 no effect, 100 complete control
In short: as §2

[1] = system: common (oilseed) sunflower; test: Test C pre-/postemergence test; assay type: in vivo, Helianthus annuus; details: for Sunflower plant response rating: preemergence, scale 0 (no effect) to 100 (complete control)
In short: as §2

Surinam grass = test: Test C pre-/postemergence test; assay type: in vivo, Brachiaria decumbens; details: for Surinam Grass plant response rating: preemergence, scale 0 (no effect) to 100 (complete control); for Plant response rating, Surinam Grass: scale 0 to 100, 0 no effect, 100 complete control
In short: as §2

wild oat = test: Test C pre-/postemergence test; assay type: in vivo, Avena fatua; details: for Plant response rating, Oat, Wild: scale 0 to 100, 0 no effect, 100 complete control
In short: as §2

wheat = test: Test C pre-/postemergence test; assay type: in vivo, Triticum aestivum; details: for Wheat plant response rating: preemergence, scale 0 (no effect) to 100 (complete control); for Plant response rating, Wheat: scale 0 to 100, 0 no effect, 100 complete control
In short: as §2

blackgrass = test: Test C pre-/postemergence test; assay type: in vivo, Alopecurus myosuroides; details: for Plant response rating, Blackgrass: scale 0 to 100, 0 no effect, 100 complete control
In short: as §2

crabgrass = test: Test C pre-/postemergence test; assay type: in vivo, Digitaria sanguinalis; details: for Plant response rating, Crabgrass, Large: scale 0 to 100, 0 no effect, 100 complete control
In short: as §2

rice = test: Test C flooded paddy test; assay type: in vivo, Oryza sativa; details: Flood
In short: as §3

pigweed = test: Test C pre-/postemergence test; assay type: in vivo, Amaranthus retroflexus; details: for Plant response rating, Pigweed: scale 0 to 100, 0 no effect, 100 complete control
In short: as §2

catchweed bedstraw = test: Test C pre-/postemergence test; assay type: in vivo, Galium aparine
In short: as §2

kochia = test: Test C pre-/postemergence test; assay type: in vivo, Kochia scoparia; details: for Plant response rating, Kochia: scale 0 to 100, 0 no effect, 100 complete control
In short: as §2

[2] = Postemergence, 125 g ai/ha, 0 is no effect, 100 is complete control
[3] = Postemergence, 500 g ai/ha, 0 is no effect, 100 is complete control
[4] = Preemergence, 125 g ai/ha, 0 no effect, 100 complete control
[5] = Preemergence, 500 g ai/ha, 0 to 100 scale where 0 is no effect and 100 is complete control
[6] = 31 g ai/ha, Preemergence, scale 0 to 100
[7] = 62 g ai/ha, preemergence, scale 0 (no effect) to 100 (complete control)
[8] = preemergence, 125 g ai/ha, scale 0 (no effect) to 100 (complete control)
[9] = 31 g ai/ha, scale 0 to 100 (0 no effect, 100 complete control)
[10] = 62 g ai/ha, scale 0 to 100, 0 no effect, 100 complete control, 13 to 15 days
[11] = 125 g ai/ha, scale 0 to 100, 0 no effect, 100 complete control, 13 to 15 days
[12] = 250 g ai/ha, scale 0 to 100 (0 no effect, 100 complete control)

CC(c1c(C(F)(F)F)nn(C)c1OC(F)F)S(=O)(=O)c1cccc[n+]1[O-] (centres unmarked) [Compound 5]
98: Plant response rating (0 to 100), Wheat (wheat; Preemergence, 250 g ai/ha) | Crabgrass, Large plant response rating (crabgrass; [6])
90: Galium plant response rating (catchweed bedstraw; [7])
0: Plant response rating (0 to 100), Velvetleaf (velvetleaf; 31 g ai/ha) | Plant response rating (0 to 100), Velvetleaf (velvetleaf; 62 g ai/ha) | Plant response rating (0 to 100), Oat, Wild (wild oat; Postemergence, 31 g ai/ha) | Plant response rating, Oat, Wild (wild oat; Postemergence, 62 g ai/ha) | Plant response rating, Oat, Wild (wild oat; Postemergence, 125 g ai/ha) | Plant response rating (0 to 100), Wheat (wheat; Postemergence, 31 g ai/ha) | Plant response rating (0 to 100), Wheat (wheat; Postemergence, 62 g ai/ha) | Plant response rating (0 to 100), Blackgrass (blackgrass; Postemergence, 31 g ai/ha) | Plant response rating, Blackgrass (blackgrass; Postemergence, 62 g ai/ha) | Plant response rating (0 to 100), Pigweed (pigweed; Postemergence, 31 g ai/ha) | Plant response rating (0 to 100), Pigweed (pigweed; Postemergence, 62 g ai/ha) | Plant response rating, Pigweed (pigweed; Postemergence, 125 g ai/ha) | Plant response rating, Pigweed (pigweed; Postemergence, 250 g ai/ha) | Plant response rating (0 to 100), Kochia (kochia; Postemergence, 31 g ai/ha) | Plant response rating, Kochia (kochia; Postemergence, 62 g ai/ha) | Plant response rating, Kochia (kochia; Postemergence, 125 g ai/ha) | Plant response rating, Kochia (kochia; Postemergence, 250 g ai/ha)
60: Pigweed plant response rating (redroot pigweed; [2]) | Plant response rating, Bermudagrass (bermudagrass; Postemergence, 125 g ai/ha) | Plant response rating, Bermudagrass (bermudagrass; Postemergence, 250 g ai/ha) | Plant response rating, Surinam Grass (Surinam grass; Postemergence, 125 g ai/ha) | Oat, Wild plant response rating (wild oat; [7]) | Plant response rating, Crabgrass, Large (crabgrass; Postemergence, 125 g ai/ha) | Plant response rating, Crabgrass, Large (crabgrass; Postemergence, 250 g ai/ha)
5: Plant response rating (0 to 100), Bermudagrass (bermudagrass; Postemergence, 31 g ai/ha) | Plant response rating, Velvetleaf (velvetleaf; 125 g ai/ha) | Plant response rating (0 to 100), Crabgrass, Large (crabgrass; Postemergence, 31 g ai/ha)
100: Pigweed plant response rating (redroot pigweed; [4]) | Plant response rating, Pigweed (redroot pigweed; [5]) | Nightshade plant response rating (eastern black nightshade; [6]) | Nightshade plant response rating (eastern black nightshade; [7]) | Plant response rating (0 to 100), Nightshade (eastern black nightshade; Preemergence, 250 g ai/ha) | Nightshade plant response rating (eastern black nightshade; [8]) | Bermudagrass plant response rating (bermudagrass; [6]) | Bermudagrass plant response rating (bermudagrass; [7]) | Plant response rating (0 to 100), Bermudagrass (bermudagrass; Preemergence, 250 g ai/ha) | Bermudagrass plant response rating (bermudagrass; [8]) | Plant response rating, Surinam Grass (Surinam grass; Postemergence, 250 g ai/ha) | Blackgrass plant response rating (blackgrass; [7]) | Plant response rating (0 to 100), Blackgrass (blackgrass; Preemergence, 250 g ai/ha) | Blackgrass plant response rating (blackgrass; [8]) | Crabgrass, Large plant response rating (crabgrass; [7]) | Plant response rating (0 to 100), Crabgrass, Large (crabgrass; Preemergence, 250 g ai/ha) | Crabgrass, Large plant response rating (crabgrass; [8]) | Pigweed plant response rating (pigweed; [6]) | Pigweed plant response rating (pigweed; [7]) | Plant response rating (0 to 100), Pigweed (pigweed; Preemergence, 250 g ai/ha) | Pigweed plant response rating (pigweed; [8]) | Plant response rating (0 to 100), Galium (catchweed bedstraw; Preemergence, 250 g ai/ha) | Galium plant response rating (catchweed bedstraw; [8]) | Kochia plant response rating (kochia; [7]) | Plant response rating (0 to 100), Kochia (kochia; Preemergence, 250 g ai/ha) | Kochia plant response rating (kochia; [8])
40: Plant response rating, Bermudagrass (bermudagrass; Postemergence, 62 g ai/ha) | Plant response rating, Blackgrass (blackgrass; Postemergence, 250 g ai/ha) | Plant response rating, Rice (rice; [9])
85: Plant response rating, Barnyardgrass (barnyardgrass; [11]) | Plant response rating, Barnyardgrass (barnyardgrass; [12]) | Plant response rating (0 to 100), Sunflower ([1]; Preemergence, 250 g ai/ha) | Plant response rating, Rice (rice; [11]) | Plant response rating, Rice (rice; [12]) | Galium plant response rating (catchweed bedstraw; [6])
75: Plant response rating (0 to 100), Oat, Wild (wild oat; Preemergence, 250 g ai/ha)
70: Corn plant response rating (corn; [3]) | Plant response rating, Barnyardgrass (barnyardgrass; [9]) | Sunflower plant response rating ([1]; 125 g ai/ha) | Surinam Grass plant response rating (Surinam grass; 62 g ai/ha) | Surinam Grass plant response rating (Surinam grass; 125 g ai/ha) | Oat, Wild plant response rating (wild oat; [8]) | Wheat plant response rating (wheat; 125 g ai/ha)
55: Sunflower plant response rating ([1]; 62 g ai/ha) | Plant response rating (0 to 100), Surinam Grass (Surinam grass; Postemergence, 62 g ai/ha)
80: Pigweed plant response rating (redroot pigweed; [3]) | Plant response rating, Corn (corn; [5]) | Plant response rating, Barnyardgrass (barnyardgrass; [10]) | Blackgrass plant response rating (blackgrass; [6]) | Plant response rating, Rice (rice; [10]) | Kochia plant response rating (kochia; [6])
95: Plant response rating (0 to 100), Surinam Grass (Surinam grass; Preemergence, 250 g ai/ha)
30: Corn plant response rating (corn; [2]) | Plant response rating (0 to 100), Surinam Grass (Surinam grass; Postemergence, 31 g ai/ha) | Plant response rating, Oat, Wild (wild oat; Postemergence, 250 g ai/ha) | Plant response rating, Wheat (wheat; Postemergence, 125 g ai/ha) | Plant response rating, Wheat (wheat; Postemergence, 250 g ai/ha)
20: Corn plant response rating (corn; [4]) | Oat, Wild plant response rating (wild oat; [6]) | Wheat plant response rating (wheat; 62 g ai/ha) | Plant response rating, Crabgrass, Large (crabgrass; Postemergence, 62 g ai/ha)
50: Plant response rating, Velvetleaf (velvetleaf; 250 g ai/ha)
